Target: T1, human Cystic Fibrosis Transmembrane Conductance Regulator (CFTR) harboring the ΔF508 mutation (Homo sapiens, UniProt P13569, DEL508-508)
T1 construct: expressed in transfected cells; host or cells: H441 carcinoma line (G418 selection)
Assay: H441 cell Emax and EC50: HRP-tagged ΔF508-CFTR cell surface luminescence assay
Format: cell-based
Conditions: H441 cells expressing ΔF508-CFTR-HRP, 27° C., two nights; for EC50: 15-point dose-response, top 24.5 μM; for Emax: NCI-H441, % of maximum VX809 signal
Excerpt: Two cell lines were used, the H441 carcinoma line and the CFHBE41o-(41o-) human bronchial epithelial line. Both cell lines expressed human Cystic Fibrosis Transmembrane Conductance Regulator (CFTR) harboring the ΔF508 mutation and with an in-frame fusion in CFTR extracellular loop 4 of Horse Radish Peroxidase (HRP) under control of the CMV promoter. In the presence of the HRP tag, ΔF508-CFTR transported to the cell surface was detectable upon addition of an HRP substrate (Luminata Forte). Both cell types were cultivated at 37° C. with CO2.
For both cell types, the medium was changed every other day unless the culture was at low % confluence. Cells were used for the assays at ˜75% confluence.
To a polypropylene (PP) 384-well plate, 15 μls DMSO was added to all wells in columns 1-22 and 24 (low Control). 15 μls of 260 μM VX809 (Lumacaftor), Selleckchem S1565, was added to column 23 wells (high Control). 15 μls of 10 mM test compound or VX809 (control) were added to wells of row A. Serial dilutions of Row A compound were performed 2×15 μls in rows A through O (15-point).
A PP, 384-well plate containing the appropriate cell culture medium was prepared for each assay plate with 100 μls per well. For the doxycycline-induced 41o-cells, doxycycline for both the assay plate and the medium dilution plate was added at 0.0005 mg/ml to the medium.
Both cell lines were plated for the assay at 30 uls per 384-well at 3.4×10^e5 cells per ml (˜10K cells/well). H441 cells were plated on opaque, white, Corning plate 3704. 41o-cells were plated on collagen-coated opaque, white, Corning plate 356665. For 41o-cells, doxycycline was added to the medium.
Using FX (Beckman) protocol, 10 uls diluted compound or medium was added per well to the Assay Plate as: 2 μls DMSO Dilution plate well is diluted in 100 uls of the Medium Dilution Plate well, mixed, and 10 uls is transferred to the Assay Plate.
The final assay dilution series is 24.5, 12.3, 6.1, 3.1, 1.5, 0.8, 0.4, 0.2, 0.1, 0.05, 0.02, 0.01, 0.006, 0.003, 0.001 and 0 μM. The 41o-assay plates were incubated at 37° C. w/CO2, the H441 assay plates were incubated at 27° C. w/CO2, each overnight for two nights.
After being brought to room temperature, the assay plate liquid was removed. 30 μls of Luminata Forte (Millipore ELLUF0100) was added per well and incubated at room temperature for 10 min. The plates were then read on a Topcount, protocol LumiMatti (CPS, luminescence). The data was analyzed for % of maximum, maximum VX809 signal, and EC50 using Pearl and SPEED tools.

T1 sequence (P13569 with tags, fused parts or gaps DEL508-508): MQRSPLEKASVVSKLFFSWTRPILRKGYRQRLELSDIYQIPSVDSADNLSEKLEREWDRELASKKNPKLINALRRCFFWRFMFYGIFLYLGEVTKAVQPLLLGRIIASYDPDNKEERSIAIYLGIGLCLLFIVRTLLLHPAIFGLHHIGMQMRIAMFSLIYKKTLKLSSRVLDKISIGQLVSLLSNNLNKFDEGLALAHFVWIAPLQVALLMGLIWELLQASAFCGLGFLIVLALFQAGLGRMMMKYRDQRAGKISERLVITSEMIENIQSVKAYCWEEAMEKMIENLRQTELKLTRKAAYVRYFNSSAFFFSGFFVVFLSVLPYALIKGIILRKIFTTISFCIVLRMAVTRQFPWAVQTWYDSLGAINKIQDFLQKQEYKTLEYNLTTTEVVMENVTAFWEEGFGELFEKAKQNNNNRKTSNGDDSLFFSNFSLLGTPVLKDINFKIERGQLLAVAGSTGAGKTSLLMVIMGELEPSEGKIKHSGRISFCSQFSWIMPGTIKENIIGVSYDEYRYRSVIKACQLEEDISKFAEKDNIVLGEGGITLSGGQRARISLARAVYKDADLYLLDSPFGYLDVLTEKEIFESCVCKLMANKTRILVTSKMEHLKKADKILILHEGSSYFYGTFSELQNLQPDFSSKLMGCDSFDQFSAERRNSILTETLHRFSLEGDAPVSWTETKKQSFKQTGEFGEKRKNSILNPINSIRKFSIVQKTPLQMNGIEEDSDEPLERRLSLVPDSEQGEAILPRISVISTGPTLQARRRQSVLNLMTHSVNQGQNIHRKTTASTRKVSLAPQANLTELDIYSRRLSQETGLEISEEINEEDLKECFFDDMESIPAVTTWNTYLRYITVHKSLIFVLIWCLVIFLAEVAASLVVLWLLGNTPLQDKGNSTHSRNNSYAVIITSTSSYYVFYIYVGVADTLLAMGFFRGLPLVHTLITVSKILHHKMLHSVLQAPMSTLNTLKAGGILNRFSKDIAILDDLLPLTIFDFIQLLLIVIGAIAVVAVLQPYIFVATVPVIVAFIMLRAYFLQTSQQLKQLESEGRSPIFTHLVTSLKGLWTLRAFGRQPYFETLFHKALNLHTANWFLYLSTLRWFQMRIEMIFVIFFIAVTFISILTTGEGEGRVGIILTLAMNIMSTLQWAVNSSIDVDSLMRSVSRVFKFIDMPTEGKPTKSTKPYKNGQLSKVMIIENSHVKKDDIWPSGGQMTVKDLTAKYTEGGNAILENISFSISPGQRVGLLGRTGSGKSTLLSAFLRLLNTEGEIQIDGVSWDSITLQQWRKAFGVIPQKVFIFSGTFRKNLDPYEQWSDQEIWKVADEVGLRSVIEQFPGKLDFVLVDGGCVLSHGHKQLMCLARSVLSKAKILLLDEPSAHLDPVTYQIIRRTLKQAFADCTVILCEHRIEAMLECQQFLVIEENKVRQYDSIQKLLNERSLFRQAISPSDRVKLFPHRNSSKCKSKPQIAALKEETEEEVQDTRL

| SMILES | EC50 [nM] | Emax [%] |
| --- | --- | --- |
| O=C(N[C@H](C(=O)O)C12CC3CC(CC(C3)C1)C2)c1ccc2sccc2c1OCc1nc2ccccc2s1 [compound 113, (2S)-2-(1-adamantyl)-2-[[4-(1,3-benzothiazol-2-ylmethoxy)benzothiophene-5-carbonyl]amino]acetic acid] | 596 | 184 |
| O=C(N[C@H](C(=O)O)C12CC3CC(CC(C3)C1)C2)c1ccc2cccnc2c1OCC1CCCCC1 [compound 5] | 1160 | 249 |
| O=C(N[C@H](C(=O)O)C12CC3CC(CC(C3)C1)C2)c1ccc2occc2c1OCc1nc2ccccc2s1 [compound 122, (2S)-2-(1-adamantyl)-2-[[4-(1,3-benzothiazol-2-ylmethoxy)benzofuran-5-carbonyl]amino]acetic acid] | 1510 | 171 |
| O=C(N[C@H](C(=O)O)C12CC3CC(Cl)(CC(Cl)(C3)C1)C2)c1ccc2ccccc2c1OCc1ccc(SC(F)(F)F)cc1 [compound 81] | 113 | 158 |
| O=C(N[C@H](C(=O)O)C12CC3CC(CC(OCCF)(C3)C1)C2)c1ccc2cc(F)ccc2c1OCc1ccc(C(F)(F)F)cc1 [compound 25] | 228 | 106 |
| O=C(N[C@H](C(=O)O)C12CC3CC(CC(O)(C3)C1)C2)c1ccc2cccnc2c1OCc1ccc(C(F)(F)F)cc1 [compound 22] | 3660 | 175 |
| O=C(N[C@H](C(=O)O)C12CC3CC(CC(C3)C1)C2)c1ccc2cc(F)ccc2c1OCc1ccc(Cl)c(Cl)c1 [compound 55] | 196 | 150 |
| CCOC(=O)[C@H](C)OC12CC3CC(C1)CC([C@H](NC(=O)c1ccc4cc(F)ccc4c1OCc1ccc(C(F)(F)F)cc1)C(=O)O)(C3)C2 [compound 87] | 287 | 96.2 |
| CS(=O)(=O)CCOC12CC3CC(C1)CC([C@H](NC(=O)c1ccc4cc(F)ccc4c1OCc1ccc(C(F)(F)F)cc1)C(=O)O)(C3)C2 [compound 39] | 2160 | 102 |
| O=C(N[C@H](C(=O)O)C12CC3CC(CC(C3)C1)C2)c1ccc2sccc2c1OCc1ccc(OC(F)F)cc1 [compound 107, (2S)-2-(1-adamantyl)-2-[[4-[[4-(difluoromethoxy)phenyl]methoxy]benzothiophene-5-carbonyl]amino]acetic acid] | – | -7.7 |
| O=C(N[C@H](C(=O)O)C12CC3CC(CC(C3)C1)C2)c1ccc2cccnc2c1OCc1nc2ccccc2s1 [compound 51] | 1600 | 206 |
| CS(=O)(=O)c1ccc(COc2c(C(=O)N[C@H](C(=O)O)C34CC5CC(CC(O)(C5)C3)C4)ccc3ccccc23)cc1 [compound 10] | 16900 | 29.2 |
| C[C@@H](OC12CC3CC(C1)CC([C@H](NC(=O)c1ccc4cc(F)ccc4c1OCc1ccc(C(F)(F)F)cc1)C(=O)O)(C3)C2)C(=O)O [compound 36] | – | 0.9 |
| CC(C)OC(=O)[C@@H](NC(=O)c1ccc2cccnc2c1OCc1ccc(C(F)(F)F)cc1)C12CC3CC(CC(C3)C1)C2 [compound 69] | ≥ 24500 | 28.9 |
| O=C(N[C@H](C(=O)O)C12CC3CC(CC(C3)C1)C2)c1sc2cc(Cl)ccc2c1OCc1ccc(C(F)(F)F)cc1 [compound 32] | 396 | 105 |
| O=C(N[C@H](C(=O)O)C12CC3CC(CC(O)(C3)C1)C2)c1ccc2cccnc2c1OCC1CCC(F)(F)CC1 [compound 60] | 11600 | 73.1 |
| O=C(O)[C@@H](N1CN(Cc2ccc(C(F)(F)F)cc2)c2ccccc2C1=O)C12CC3CC(CC(C3)C1)C2 [compound 135, (2S)-2-(1-adamantyl)-2-[4-oxo-1-[[4-(trifluoromethyl)phenyl]methyl]-2H-quinazolin-3-yl]acetic acid] | – | -5.4 |
| O=C(NC(C(=O)O)C12CC3CC(CC(OCC(Cl)Cl)(C3)C1)C2)c1ccc2cc(F)ccc2c1OCc1ccc(C(F)(F)F)cc1 (centres unmarked) [compound 91] | 441 | 110 |
| O=C(N[C@H](C(=O)O)C12CC3CC(CC(C3)C1)C2)c1ccc2cc(F)ccc2c1OCC1CCC(F)(F)CC1 [compound 16] | 1750 | 90 |
| O=C(N[C@H](C(=O)O)C12CC3CC(CC(C3)C1)C2)c1ccc2sccc2c1OCc1nc(C(F)(F)F)cs1 [compound 115, (2S)-2-(1-adamantyl)-2-[[4-[[4-(trifluoromethyl)thiazol-2-yl]methoxy]benzothiophene-5-carbonyl]amino]acetic acid] | 2840 | 106 |
| O=C(N[C@H](C(=O)O)C12CC3CC(Cl)(CC(Cl)(C3)C1)C2)c1ccc2ccccc2c1NCc1ccc(SC(F)(F)F)cc1 [compound 130, (2S)-2-(3,5-dichloro-1-adamantyl)-2-[[1-[[4-(trifluoromethylsulfanyl)phenyl]methylamino]naphthalene-2-carbonyl]amino]acetic acid] | 477 | 60.6 |
| O=C(N[C@H](C(=O)O)C12CC3CC(CC(C3)C1)C2)c1ccc2ccccc2c1OC[C@H]1CC[C@H](C(F)(F)F)CC1 [compound 48] | 729 | 124 |

Next, values leading:

| EC50 [nM] | Emax [%] | SMILES |
| --- | --- | --- |
| – | 4 | CC(C)OC(=O)[C@@H](NC(=O)c1ccc2ccccc2c1OCc1ccc(C(F)(F)F)cc1)C12CC3CC(CC(C3)C1)C2 [compound 74] |
| 18000 | 53.1 | O=C(N[C@H](C(=O)O)C12CC3CC(CC(C3)C1)C2)c1ccc2ccccc2c1OCC1(C(F)(F)F)CC1 [compound 102, (2S)-2-(1-adamantyl)-2-[[1-[[1-(trifluoromethyl)cyclopropyl]methoxy]naphthalene-2-carbonyl]amino]acetic acid] |
| 155 | 132 | O=C(N[C@H](C(=O)O)C12CC3CC(CC(C3)C1)C2)c1ccc2cc(O)ccc2c1OCc1ccc(C(F)(F)F)cc1 [compound 37] |
| 261 | 165 | O=C(N[C@H](C(=O)O)C12CC3CC(CC(C3)C1)C2)c1ccc2sccc2c1OCc1ccc(OC(F)(F)F)cc1 [compound 111, (2S)-2-(1-adamantyl)-2-[[4-[[4-(trifluoromethoxy)phenyl]methoxy]benzothiophene-5-carbonyl]amino]acetic acid] |
| 267 | 128 | COCCOC12CC3CC(C1)CC([C@H](NC(=O)c1ccc4ccccc4c1OCc1ccc(C(F)(F)F)cc1)C(=O)O)(C3)C2 [compound 43] |
| 1030 | 137 | O=C(NC(C(=O)O)C12CC3CC(CC(O)(C3)C1)C2)c1ccc2ccccc2c1OCc1ccc(C(F)(F)F)cc1 (centres unmarked) [compound 79] |
| 328 | 158 | O=C(N[C@H](C(=O)O)C12CC3CC(CC(C3)C1)C2)c1sc2ccccc2c1OCc1ccc(C(F)(F)F)cc1 [compound 15] |
| 172 | 160 | O=C(N[C@H](C(=O)O)C12CC3CC(CC(C3)C1)C2)c1ccn2cccc2c1OCc1ccc(C(F)(F)F)cc1 [compound 117, (2S)-2-(1-adamantyl)-2-[[8-[[4-(trifluoromethyl)phenyl]methoxy]indolizine-7-carbonyl]amino]acetic acid] |
| 131 | 56.2 | COc1ccc2c(OCc3ccc(C(F)(F)F)cc3)c(C(=O)N[C@H](C(=O)O)C34CC5CC(CC(C5)C3)C4)ccc2c1 [compound 38] |
| ≥ 24500 | 7.8 | O=C(N[C@H](C(=O)O)C12CC3CC(CC(C3)C1)C2)c1ccc2ccccc2c1OCc1ccc(OC(F)F)cc1 [compound 78] |
| 113 | 149 | O=C(N[C@H](C(=O)O)C12CC3CC(CC(C3)C1)C2)c1ccc2ccccc2c1OCc1ccc(C(F)(F)C(F)(F)F)cc1 [compound 40] |
| – | -9.7 | O=C(N[C@H](C(=O)O)C12CC3CC(CC(C3)C1)C2)c1ccc2cc(F)ccc2c1OCc1ccc(OC(F)(F)F)cc1 [compound 88] |
| 397 | 30.2 | CC(C)Oc1ccc2c(OCc3ccc(C(F)(F)F)cc3)c(C(=O)N[C@H](C(=O)O)C34CC5CC(CC(C5)C3)C4)ccc2c1 [compound 103, (2S)-2-(1-adamantyl)-2-[[6-isopropoxy-1-[[4-(trifluoromethyl)phenyl]methoxy]naphthalene-2-carbonyl]amino]acetic acid] |
